Test results taken from US12263140B1, “Methods of reducing the production of greenhouse gases from animals” (AGRICULTURAL SCIENCES LIMITED, priority 2023, dated 2025).

Tests used:
[1] = EFSA report 2013; cited from earlier work
cow rumen fluid [2] = test: Fermentation of cow rumen fluid and dried grass (hay) in adjustable pressure fermenter; type: cell-based; parameters: reduction of total gas volume compared to controls, average / reduction of total gas volume compared to controls, minimum / methane emission reduction / methane emission reduction, peak / CO2 volume produced by the fermentation, reduction compared to control samples: concentration or dose not given beside the values; conditions: for inhibition of vitamin K1 effects on reducing gas production by grass: Example 2
Text: The aerial parts of the plants were harvested and allowed to dry for a number of days, the number depend on the weather. When air dry the material was steeped in 30% ethanol for one month or more (up to 3 months). It was important to keep the steep in the dark and to have the steep vessels filled and cover tightly to prevent the entry of air. […] Samples of rumen fluid were collected from either slaughtered cows immediately after slaughter. Samples of rumen fluid were collected from the rumen of these cows by cutting the rumen wall using a sterilised knife and allowing the fluid that exuded from the cut to be collected in a sterilised kidney bowl and held in a Dewar flask at body temperature. The rumen fluid was used within one hour of slaughter. It was passed through cheese cloth or similar to filter out the liquid portion for use in this and further trials. […] The rumen fluid was kept in the dark at a temperature of 36° C. at all times during transport and storage.
The collected rumen fluid samples were mixed with dried grass (hay) to form control samples. […] The prepared samples were then added to a trial fermenter and fermented over time to determine the total amount of gas produced during the fermentation time period along with the CO2 produced and the methane (CH4) production during the trial time period. The tubes were inspected periodically until fermentation stopped. The samples were analysed using gas chromatography (GC) with a permanent gas analysis column, in the order they were made.
The trial fermenter used is an adjustable pressure fermenter system consisting of two arms (one closed and one open) of a manometric setup fastened to a backplate (not shown).
Fermentation tube sizes varied from 50 ml to 250 ml. The closed arm was fixed to the supports and was closed at its top end by means of a removable stopper that has a small rubber or synthetic material septum embedded in the centre.
Samples may be taken from the fermenter using a gas tight microlitre syringe. In use, according to one or more embodiments, the needle of the syringe is able to be inserted through the septum to take samples of fermenting fluid or gas for analysis by gas chromatography.
The arms were free to move up or down so that the pressure in the closed arm could be brought to atmospheric pressure, which occurred when the fluid levels in both arms were at equal heights.
For all early trials lab scale (50 ml) fermenters were used. Up to 20 fermenters could be used at the same time thus giving more reliable replications for statistical analysis. The tubes were held in a water bath held at a temperature of 36° C. with light excluded by a light-proof cover on the bath. The tubes were gently agitated during the fermentation.
The synthetic material was produced by the oxidation of 2-methylnaphthalene to 2-methyl-1,4-naphthoquinone with chromium trioxide in sulphuric and acetic acids. Trials were completed using the above trial fermenter and method using rumen fluid as described in Example 1.
To investigate this, fermentations were completed using the apparatus described in Example 1 and FIG. 1 using samples of fresh cow rumen fluid and dried grass, according to one or more embodiments.

[3] = tested on: rumen regions AD, PD, PV, AV; test: Natural fermentation and pH of fluid from different rumen regions; type: cell-based, cow; conditions: FIG. 13
Text: The different rumen regions were sampled by collecting the rumen of a slaughtered animal and making a cut with a sterile knife in a particular region and then palpating fluid samples using gloved hands from the cut. Cuts were made in the anterior dorsal region of the rumen (AD), the posterior region (PD), the posterior ventral (PV) and the anterior ventral (AV).
FIG. 13 is a graph showing the results of natural fermentation (without the addition of substrate other than the material eaten by the cow before death), according to one or more embodiments.
The pH difference between experimental, which were dosed with vitamin K1, and the controls, which were not dosed with vitamin K1, was greatest at position AD. The average pH in the control samples was 6.51 and in the experimental samples, the average pH was 6.34.

[4] = tested on: rumen fluid from live fistulated cows; test: Fermentation of dried grass with rumen fluid from treated live fistulated cows, 12 hours (Example 11); type: in vivo, cow; conditions: 36° C., dark, 1 g dried grass
Experimental: In this trial, samples of rumen fluid from live fistulated cows were collected, passed through butter muslin (cheese cloth) and the fluid transferred to pre-warmed Thermos™ flasks.
Six fermentation vessels had 1 g of dried grass added to each.
Three vessels, the Experimentals, were filled with the rumen fluid from the treated cows. The other three vessels, the controls, were filled with rumen fluid from the untreated cows. All vessels were gently incubated at 36° C. in the dark for 12 hours.

methanogens = test: Fermentation of methyl alcohol in rumen fluid; type: cell-based, cow; conditions: MeOH added to rumen fluid with or without vitamin K1
Experimental: The MeOH was added in equal volumes to tubes containing rumen fluid with (E) or without (C) the addition of vitamin K1. The results are shown as symbols on the Y-axis in FIG. 13, according to one or more embodiments.

cow rumen fluid [5] = test: SIFT-MS analysis of gas from grass fermentations by cow rumen fluid; type: cell-based
Text: A SIFT-MS analyser was further used to confirm the above noted effects in terms of reductions in methane. A SIFT-MS device (see https://syft.com/sift-ms-technology/) is an advanced method for analysing mixtures of smaller volatile organic compounds.

CC1=C(C/C=C(\C)CCC[C@H](C)CCC[C@H](C)CCCC(C)C)C(=O)c2ccccc2C1=O [vitamin K1]
risk to the environment [1]: not a risk to the environment | CO2 volume produced by the fermentation, reduction compared to control samples (cow rumen fluid [2]): 83.4% | inhibition of vitamin K1 effects on reducing gas production by grass (cow rumen fluid [2]; grass fermented immediately after harvest): total | inhibition of vitamin K1 effects on reducing gas production by grass (cow rumen fluid [2]; older (3+ day old) grass): only a small inhibitory effect | gas volume produced (cow rumen fluid [2]; Example 9, Trial 4, vitamin K1 and sulphide both added): consistent with and even slightly higher than control | methane emission reduction (cow rumen fluid [2]; further trials): 66.7% | reduction of total gas volume compared to controls, average (cow rumen fluid [2]; further trials): 80.2% | reduction of total gas volume compared to controls, maximum (cow rumen fluid [2]; further trials): 94.5% | reduction of total gas volume compared to controls, minimum (cow rumen fluid [2]; further trials): 75.9% | methane emission reduction, peak (cow rumen fluid [2]; further trials, under specific conditions): 91% | rumen region of greatest inhibition [3]: maximum inhibitory effect in the PV region | rate of methane production in rumen regions ([3]; natural fermentation without added substrate): lower the rate of methane production | CO2, of controls [4]: 39.35% | methane formation, of controls [4]: 25.6% | total gas volume, of controls [4]: 25.6% | fermentation of MeOH by methanogens (methanogens): strongly inhibits | reduction in methane compared with controls (cow rumen fluid [5]): 83.6% | reduction in total volume compared with controls (cow rumen fluid [5]): 56.8%
